Data published in publication PMC9942120 (iScience, 2023).

Columns and labels:
Experiment in all cases: direct LC-MS/MS profiling of modified tryptic peptides
Type in all cases: cell-based
[1] = target: KRT4 (Homo sapiens, UniProt P19013); settings: covalent at Cys42; H358 cells, […] AMG510, […] h (methods print […] h)
[2] = target: T1, PLOD3 (Homo sapiens, UniProt O60568); settings: covalent at Cys691; H358 cells, […] AMG510, […] h (methods print […] h)
T1 sequence (O60568 25-738): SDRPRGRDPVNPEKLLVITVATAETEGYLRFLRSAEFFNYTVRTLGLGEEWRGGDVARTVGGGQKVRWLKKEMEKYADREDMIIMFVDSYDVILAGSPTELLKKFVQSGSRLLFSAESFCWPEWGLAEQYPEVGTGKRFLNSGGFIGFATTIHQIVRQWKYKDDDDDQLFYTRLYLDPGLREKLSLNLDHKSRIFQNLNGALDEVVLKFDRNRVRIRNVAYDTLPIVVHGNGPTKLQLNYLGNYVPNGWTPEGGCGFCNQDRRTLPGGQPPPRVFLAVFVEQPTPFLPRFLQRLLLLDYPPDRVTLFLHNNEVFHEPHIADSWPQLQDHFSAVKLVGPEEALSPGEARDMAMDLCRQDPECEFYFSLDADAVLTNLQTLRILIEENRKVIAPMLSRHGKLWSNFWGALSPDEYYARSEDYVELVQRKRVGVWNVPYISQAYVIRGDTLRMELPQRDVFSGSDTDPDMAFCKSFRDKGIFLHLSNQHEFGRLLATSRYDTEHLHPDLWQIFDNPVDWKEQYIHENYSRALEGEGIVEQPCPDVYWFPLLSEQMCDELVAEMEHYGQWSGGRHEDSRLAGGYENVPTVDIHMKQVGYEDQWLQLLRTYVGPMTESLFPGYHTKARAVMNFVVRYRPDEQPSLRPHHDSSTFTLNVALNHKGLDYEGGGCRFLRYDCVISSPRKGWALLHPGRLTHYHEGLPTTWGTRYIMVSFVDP

[3] = target: T2, RAE1 (Homo sapiens, UniProt P78406); settings: covalent at Cys106; H358 cells, […] AMG510, […] h (methods print […] h)
T2 sequence (P78406 1-368): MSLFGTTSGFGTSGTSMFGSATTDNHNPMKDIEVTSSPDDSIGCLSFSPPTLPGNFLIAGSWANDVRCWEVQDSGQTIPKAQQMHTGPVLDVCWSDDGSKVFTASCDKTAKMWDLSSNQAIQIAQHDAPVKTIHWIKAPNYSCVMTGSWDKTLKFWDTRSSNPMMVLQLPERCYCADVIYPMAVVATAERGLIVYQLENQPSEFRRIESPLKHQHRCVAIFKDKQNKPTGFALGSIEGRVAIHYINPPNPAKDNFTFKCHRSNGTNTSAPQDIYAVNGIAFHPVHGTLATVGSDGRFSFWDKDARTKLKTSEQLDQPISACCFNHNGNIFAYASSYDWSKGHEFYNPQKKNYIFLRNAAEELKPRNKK

[4] = target: T3, UBE2O (Homo sapiens, UniProt Q9C0C9); settings: covalent at Cys370; H358 cells, […] AMG510, […] h (methods print […] h)
T3 sequence (Q9C0C9 1-1292): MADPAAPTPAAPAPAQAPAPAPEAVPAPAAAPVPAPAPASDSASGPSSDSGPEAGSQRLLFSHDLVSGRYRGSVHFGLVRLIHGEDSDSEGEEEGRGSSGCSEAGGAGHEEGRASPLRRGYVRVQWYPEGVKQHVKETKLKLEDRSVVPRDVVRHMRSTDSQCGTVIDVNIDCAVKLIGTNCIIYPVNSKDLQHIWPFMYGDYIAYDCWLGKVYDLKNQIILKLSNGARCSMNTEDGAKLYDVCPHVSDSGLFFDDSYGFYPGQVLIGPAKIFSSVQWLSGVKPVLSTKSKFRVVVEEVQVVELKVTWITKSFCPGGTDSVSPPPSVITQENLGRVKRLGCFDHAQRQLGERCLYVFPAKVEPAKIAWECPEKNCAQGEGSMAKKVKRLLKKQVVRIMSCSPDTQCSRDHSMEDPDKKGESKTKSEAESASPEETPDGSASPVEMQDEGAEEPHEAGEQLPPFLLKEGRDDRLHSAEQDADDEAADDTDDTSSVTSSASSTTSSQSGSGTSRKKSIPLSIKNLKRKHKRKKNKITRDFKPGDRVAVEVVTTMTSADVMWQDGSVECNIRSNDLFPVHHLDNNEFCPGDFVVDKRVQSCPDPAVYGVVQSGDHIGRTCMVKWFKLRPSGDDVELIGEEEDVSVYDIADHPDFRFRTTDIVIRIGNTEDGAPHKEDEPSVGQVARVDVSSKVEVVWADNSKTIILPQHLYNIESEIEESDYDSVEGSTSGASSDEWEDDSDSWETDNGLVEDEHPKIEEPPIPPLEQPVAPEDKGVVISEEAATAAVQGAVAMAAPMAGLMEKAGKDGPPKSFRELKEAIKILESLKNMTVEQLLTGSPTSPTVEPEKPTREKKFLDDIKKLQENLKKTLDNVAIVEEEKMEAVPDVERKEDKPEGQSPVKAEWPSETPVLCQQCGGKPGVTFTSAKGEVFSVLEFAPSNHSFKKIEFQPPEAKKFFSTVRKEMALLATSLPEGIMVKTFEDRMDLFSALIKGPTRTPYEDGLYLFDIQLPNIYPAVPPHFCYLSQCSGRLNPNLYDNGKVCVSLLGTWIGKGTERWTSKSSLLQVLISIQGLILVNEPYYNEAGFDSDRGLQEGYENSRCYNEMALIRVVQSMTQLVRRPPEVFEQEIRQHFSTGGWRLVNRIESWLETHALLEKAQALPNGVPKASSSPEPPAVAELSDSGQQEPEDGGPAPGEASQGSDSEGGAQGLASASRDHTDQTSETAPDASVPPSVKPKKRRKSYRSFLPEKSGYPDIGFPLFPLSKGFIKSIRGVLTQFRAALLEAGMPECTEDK

[5] = target: T4, TK1 (Homo sapiens, UniProt P04183); settings: covalent at Cys3; H358 cells, […] AMG510, […] h (methods print […] h)
T4 sequence (P04183 2-234): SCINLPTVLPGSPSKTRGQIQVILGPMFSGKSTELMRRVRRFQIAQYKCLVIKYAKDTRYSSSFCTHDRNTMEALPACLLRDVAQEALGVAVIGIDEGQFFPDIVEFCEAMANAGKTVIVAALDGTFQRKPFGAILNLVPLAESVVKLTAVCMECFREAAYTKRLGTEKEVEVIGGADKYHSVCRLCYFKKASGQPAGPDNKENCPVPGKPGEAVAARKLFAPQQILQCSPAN

Chain of KRT4 (P19013 whole entry): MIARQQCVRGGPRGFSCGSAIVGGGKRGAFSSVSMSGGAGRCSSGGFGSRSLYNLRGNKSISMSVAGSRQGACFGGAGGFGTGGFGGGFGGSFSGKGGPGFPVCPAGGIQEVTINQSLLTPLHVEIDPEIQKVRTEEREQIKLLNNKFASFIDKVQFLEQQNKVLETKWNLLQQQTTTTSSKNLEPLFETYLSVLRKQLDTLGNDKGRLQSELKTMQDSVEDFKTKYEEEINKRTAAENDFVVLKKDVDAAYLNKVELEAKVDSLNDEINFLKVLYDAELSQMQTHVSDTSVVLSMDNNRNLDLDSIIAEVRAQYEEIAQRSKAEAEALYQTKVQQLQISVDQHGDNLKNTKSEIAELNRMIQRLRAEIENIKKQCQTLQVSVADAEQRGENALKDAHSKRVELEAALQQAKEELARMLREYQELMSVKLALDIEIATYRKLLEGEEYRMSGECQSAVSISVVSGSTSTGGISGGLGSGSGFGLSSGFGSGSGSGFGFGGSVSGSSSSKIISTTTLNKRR

C=CC(=O)N1CCN(c2nc(=O)n(-c3c(C)ccnc3C(C)C)c3nc(-c4c(O)cccc4F)c(F)cc23)[C@@H](C)C1 [AMG510]
direct LC-MS/MS profiling of modified tryptic peptides [1]: differentiating epithelia cell markers (KRT4 C42)
direct LC-MS/MS profiling of modified tryptic peptides [2]: They included enzymes (PLOD3 C691, RPE C5, SPTLC2 C99, UBE2O C370, and TK1 C3)
direct LC-MS/MS profiling of modified tryptic peptides [3]: transporters (RAE1 C106, S100A16C4, VDAC2 C91 and C225)
direct LC-MS/MS profiling of modified tryptic peptides [4]: They included enzymes (PLOD3 C691, RPE C5, SPTLC2 C99, UBE2O C370, and TK1 C3)
direct LC-MS/MS profiling of modified tryptic peptides [5]: They included enzymes (PLOD3 C691, RPE C5, SPTLC2 C99, UBE2O C370, and TK1 C3)
